The conditions of data set [1]: cell viability/%. Put shortly:
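P388 cells at 1 × 10^4 cells/mL (final) were exposed to library peptides (stocks diluted 250-fold in RPMI1640/10% FBS) for 92 h at 37 °C, 5% CO2. Viable cells were counted by WST-1/1-methoxy PMS (4 h), absorbance 415 nm, and expressed as cell viability (%).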

Data set [2] in a line: H+/Na+ transport assay of bead-derived peptides (one-point).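 Also: relative to parent gramicidin A activity set to 1.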 The data set is classed as biochemical. More on the design: key: relative activity; mean of two control wells = 1.00. The conditions noted are these: bead-derived peptide solution, EYPC/EYPG LUVs. Put shortly: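 Miniaturized 96-well format. LUVs with entrapped pyranine (1.0 mM) were exposed to peptide for 30 min at RT. Intensities were expressed relative to full lysis by Triton X-100 and no treatment, with control-well mean = 1.00.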

Data set [3] deals with Streptococcus pyogenes SSI-9. The experiment in a line: Antibacterial activity assay of bead-derived peptides (three concentrations). Type of data set: cell-based. Further details: key: +++: inhibition by the 640-fold diluted peptide solution; ++: inhibition by the 160-fold diluted solution; +: inhibition by the 40-fold diluted solution; -: no inhibition. To be noted: S. pyogenes, bead-derived peptide solution, three concentrations. Put shortly:
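Undiluted, 4-fold and 16-fold DMSO-diluted peptide stocks; S. pyogenes SSI-9, 2 × 10^5 CFU, cation-adjusted MHB (50 mg/L Ca2+, 25 mg/L Mg2+) + 5% laked horse blood; 37 °C, 18 h; readout = cell pellet visible or not.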

Where a SMILES comes first, the peptide text is derived from it. [ ]: non-standard residue; d: D form. The star is where a group is joined. NHCH2CH2OH = OCCN*; For = O=C*

Results on 12 compounds are retold here after article PMC7531004, “Discovery of gramicidin A analogues with altered activities by multidimensional screening of a one-bead-one-compound library” (Nature Communications, 2020).

The term viability denotes a read-out of living cells in per cent, often relative to untreated cells.

In data set [1], `CNC(=O)C[C@@H](NC(=O)[C@H](C)NC(=O)[C@H](NC(=O)[C@H](C)NC(=O)CNC(=O)[C@@H](NC=O)C(C)C)C(C)C)C(=O)N[C@H](C(=O)N[C@H](CC(C)C)C(=O)N[C@@H](Cc1c[nH]c2ccccc12)C(=O)N[C@H](CC(C)C)C(=O)N[C@@H](Cc1c[nH]c2ccccc12)C(=O)N[C@@H](C(=O)N[C@@H](Cc1c[nH]c2ccccc12)C(=O)N[C@H](CC(C)C)C(=O)N[C@@H](Cc1c[nH]c2ccccc12)C(=O)NCCO)C(C)C)C(C)C` [compound 1489] (For-VGA[dV]A[dD](NHMe)V[dL]W[dL]W[dV]W[dL]W-NHCH2CH2OH) had a viability of 100%. For the same compound, in data set [2], the “H+/Na+ transport activity normalized against the value of 1 (1.00)” value (“H+/Na+ transport activity normalized” below) was 1.03. For the same compound, the antibacterial activity result in data set [3] is listed as “-”.

In data set [1], `CC(C)C[C@@H](NC(=O)[C@H](C)NC(=O)CNC(=O)[C@@H](NC=O)C(C)C)C(=O)N[C@@H](C)C(=O)N[C@@H](C(=O)N[C@H](C(=O)N[C@@H](C(=O)N[C@@H](Cc1c[nH]c2ccccc12)C(=O)N[C@@H](C(=O)N[C@@H](Cc1c[nH]c2ccccc12)C(=O)N[C@@H](C(=O)N[C@@H](Cc1c[nH]c2ccccc12)C(=O)N[C@H](CC(C)C)C(=O)N[C@@H](Cc1c[nH]c2ccccc12)C(=O)NCCO)C(C)C)C(C)C)[C@H](C)O)C(C)C)C(C)C` [compound 285] (For-VGA[dL]A[dV]V[dT]W[dV]W[dV]W[dL]W-NHCH2CH2OH) gave a viability of 100%. The “H+/Na+ transport activity normalized” value in data set [2] worked out at 1.08. Further, the antibacterial activity entry in data set [3] is “-”.

Consider `CC(C)C[C@@H](NC(=O)[C@H](C)NC(=O)CNC(=O)[C@@H](NC=O)C(C)C)C(=O)N[C@@H](C)C(=O)N[C@@H](C(=O)N[C@H](C(=O)N[C@H](CC(C)C)C(=O)N[C@@H](Cc1c[nH]c2ccccc12)C(=O)N[C@H](CC(C)C)C(=O)N[C@@H](Cc1c[nH]c2ccccc12)C(=O)N[C@@H](C(=O)N[C@@H](Cc1c[nH]c2ccccc12)C(=O)N[C@H](CC(C)C)C(=O)N[C@@H](Cc1c[nH]c2ccccc12)C(=O)NCCO)C(C)C)C(C)C)[C@H](C)O` [compound 3247] (For-VGA[dL]A[dT]V[dL]W[dL]W[dV]W[dL]W-NHCH2CH2OH), for which the viability in data set [1] was 99.5%. In addition, the “H+/Na+ transport activity normalized” value in data set [2] came out at 1.24. For the same compound, the antibacterial activity result in data set [3] is listed as “-”.

For the compound `CC(C)C[C@@H](NC(=O)[C@H](Cc1c[nH]c2ccccc12)NC(=O)[C@H](NC(=O)[C@H](Cc1c[nH]c2ccccc12)NC(=O)[C@H](NC(=O)[C@@H](NC(=O)[C@H](NC(=O)[C@H](C)NC(=O)[C@H](NC(=O)[C@H](C)NC(=O)CNC(=O)[C@@H](NC=O)C(C)C)C(C)C)[C@H](C)O)C(C)C)C(C)C)C(C)C)C(=O)N[C@@H](Cc1c[nH]c2ccccc12)C(=O)N[C@@H](C(=O)N[C@@H](Cc1c[nH]c2ccccc12)C(=O)NCCO)C(C)C` [compound 7061] (For-VGA[dV]A[dT]V[dV]W[dV]W[dL]W[dV]W-NHCH2CH2OH), the viability in data set [1] stood at 100%. Further, the “H+/Na+ transport activity normalized” value in data set [2] is reported as 1.01. The antibacterial activity entry in data set [3] is “-”.

Turning to `CC(C)C[C@@H](NC(=O)[C@H](C)NC(=O)CNC(=O)[C@@H](NC=O)C(C)C)C(=O)N[C@@H](C)C(=O)N[C@H](CC(C)C)C(=O)N[C@H](C(=O)N[C@@H](C(=O)N[C@@H](Cc1c[nH]c2ccccc12)C(=O)N[C@@H](C(=O)N[C@@H](Cc1c[nH]c2ccccc12)C(=O)N[C@@H](C(=O)N[C@@H](Cc1c[nH]c2ccccc12)C(=O)N[C@H](CC(C)C)C(=O)N[C@@H](Cc1c[nH]c2ccccc12)C(=O)NCCO)C(C)C)[C@H](C)O)C(C)C)C(C)C` [compound 2931] (For-VGA[dL]A[dL]V[dV]W[dT]W[dV]W[dL]W-NHCH2CH2OH), the viability in data set [1] came out at 100%. In addition, the “H+/Na+ transport activity normalized” value in data set [2] was 1.06. Besides, in data set [3], the antibacterial activity result was “+”.

In data set [1], `CNC(=O)C[C@@H](NC(=O)[C@H](Cc1c[nH]c2ccccc12)NC(=O)[C@@H](CC(C)C)NC(=O)[C@@H](NC(=O)[C@@H](CC(C)C)NC(=O)[C@H](C)NC(=O)[C@@H](CC(C)C)NC(=O)[C@H](C)NC(=O)CNC(=O)[C@@H](NC=O)C(C)C)C(C)C)C(=O)N[C@@H](Cc1c[nH]c2ccccc12)C(=O)N[C@@H](C(=O)N[C@@H](Cc1c[nH]c2ccccc12)C(=O)N[C@H](CC(C)C)C(=O)N[C@@H](Cc1c[nH]c2ccccc12)C(=O)NCCO)C(C)C` [compound 2432] (For-VGA[dL]A[dL]V[dL]W[dD](NHMe)W[dV]W[dL]W-NHCH2CH2OH) registered a viability of 100%. Besides, the “H+/Na+ transport activity normalized” value in data set [2] is 1.06. Besides, the antibacterial activity result in data set [3] was “-”.

Turning to `CNC(=O)C[C@@H](NC(=O)[C@H](Cc1c[nH]c2ccccc12)NC(=O)[C@H](NC(=O)[C@H](Cc1c[nH]c2ccccc12)NC(=O)[C@@H](CC(C)C)NC(=O)[C@H](Cc1c[nH]c2ccccc12)NC(=O)[C@H](NC(=O)[C@@H](NC(=O)[C@H](NC(=O)[C@H](C)NC(=O)[C@@H](CC(C)C)NC(=O)[C@H](C)NC(=O)CNC(=O)[C@@H](NC=O)C(C)C)C(C)C)C(C)C)C(C)C)C(C)C)C(=O)N[C@@H](Cc1c[nH]c2ccccc12)C(=O)NCCO` [compound 3499] (For-VGA[dL]A[dV]V[dV]W[dL]W[dV]W[dD](NHMe)W-NHCH2CH2OH), the viability in data set [1] turned out to be 100%. Besides, the “H+/Na+ transport activity normalized” value in data set [2] was determined as 1.01. The antibacterial activity entry in data set [3] is “+”.

As to `CC(C)C[C@@H](NC(=O)[C@H](C)NC(=O)CNC(=O)[C@@H](NC=O)C(C)C)C(=O)N[C@@H](C)C(=O)N[C@@H](C(=O)N[C@H](C(=O)N[C@H](CC(C)C)C(=O)N[C@@H](Cc1c[nH]c2ccccc12)C(=O)N[C@@H](C(=O)N[C@@H](Cc1c[nH]c2ccccc12)C(=O)N[C@@H](C(=O)N[C@@H](Cc1c[nH]c2ccccc12)C(=O)N[C@H](CC(C)C)C(=O)N[C@@H](Cc1c[nH]c2ccccc12)C(=O)NCCO)C(C)C)C(C)C)C(C)C)C(C)C` [compound 8051] (For-VGA[dL]A[dV]V[dL]W[dV]W[dV]W[dL]W-NHCH2CH2OH), the viability in data set [1] is 16.8%. In data set [2], the “H+/Na+ transport activity normalized” value is given as 1.13. In addition, in data set [3], the antibacterial activity result is given as “+”.

Compound `CC(C)C[C@@H](NC(=O)[C@H](C)NC(=O)[C@H](NC(=O)[C@H](C)NC(=O)CNC(=O)[C@@H](NC=O)C(C)C)C(C)C)C(=O)N[C@H](C(=O)N[C@@H](C(=O)N[C@@H](Cc1c[nH]c2ccccc12)C(=O)N[C@@H](C(=O)N[C@@H](Cc1c[nH]c2ccccc12)C(=O)N[C@@H](C(=O)N[C@@H](Cc1c[nH]c2ccccc12)C(=O)N[C@H](CC(C)C)C(=O)N[C@@H](Cc1c[nH]c2ccccc12)C(=O)NCCO)C(C)C)C(C)C)C(C)C)C(C)C` [compound 437] (For-VGA[dV]A[dL]V[dV]W[dV]W[dV]W[dL]W-NHCH2CH2OH) showed a viability in data set [1] of 100%. Moreover, the “H+/Na+ transport activity normalized” value in data set [2] turned out to be 1.11. Further, in data set [3], the antibacterial activity entry is on record as “+”.

For `CC(C)C[C@@H](NC(=O)[C@H](C)NC(=O)[C@H](NC(=O)[C@H](C)NC(=O)CNC(=O)[C@@H](NC=O)C(C)C)C(C)C)C(=O)N[C@H](C(=O)N[C@@H](C(=O)N[C@@H](Cc1c[nH]c2ccccc12)C(=O)N[C@@H](C(=O)N[C@@H](Cc1c[nH]c2ccccc12)C(=O)N[C@H](CC(C)C)C(=O)N[C@@H](Cc1c[nH]c2ccccc12)C(=O)N[C@@H](C(=O)N[C@@H](Cc1c[nH]c2ccccc12)C(=O)NCCO)C(C)C)C(C)C)C(C)C)C(C)C` [compound 11268] (For-VGA[dV]A[dL]V[dV]W[dV]W[dL]W[dV]W-NHCH2CH2OH), the viability in data set [1] came to 100%. Besides, the “H+/Na+ transport activity normalized” value in data set [2] stood at 1.06. The antibacterial activity result in data set [3] is given as “+”.

The compound `CNC(=O)C[C@@H](NC(=O)[C@@H](NC(=O)[C@H](NC(=O)[C@H](C)NC(=O)[C@H](NC(=O)[C@H](C)NC(=O)CNC(=O)[C@@H](NC=O)C(C)C)C(C)C)C(C)C)C(C)C)C(=O)N[C@@H](Cc1c[nH]c2ccccc12)C(=O)N[C@@H](C(=O)N[C@@H](Cc1c[nH]c2ccccc12)C(=O)N[C@H](CC(C)C)C(=O)N[C@@H](Cc1c[nH]c2ccccc12)C(=O)N[C@H](CC(C)C)C(=O)N[C@@H](Cc1c[nH]c2ccccc12)C(=O)NCCO)C(C)C` [compound 903] (For-VGA[dV]A[dV]V[dD](NHMe)W[dV]W[dL]W[dL]W-NHCH2CH2OH) yielded a viability in data set [1] of 89.7%. Besides, the “H+/Na+ transport activity normalized” value in data set [2] came to 1.15. Moreover, in data set [3], the antibacterial activity result is on record as “-”.

In data set [1], `CC(C)C[C@@H](NC(=O)[C@H](C)NC(=O)[C@H](NC(=O)[C@H](C)NC(=O)CNC(=O)[C@@H](NC=O)C(C)C)[C@H](C)O)C(=O)N[C@H](C(=O)N[C@H](CC(C)C)C(=O)N[C@@H](Cc1c[nH]c2ccccc12)C(=O)N[C@H](CC(C)C)C(=O)N[C@@H](Cc1c[nH]c2ccccc12)C(=O)N[C@@H](C(=O)N[C@@H](Cc1c[nH]c2ccccc12)C(=O)N[C@H](CC(C)C)C(=O)N[C@@H](Cc1c[nH]c2ccccc12)C(=O)NCCO)C(C)C)C(C)C` [compound 789] (For-VGA[dT]A[dL]V[dL]W[dL]W[dV]W[dL]W-NHCH2CH2OH) returned a viability of 100%. Also, the “H+/Na+ transport activity normalized” value in data set [2] stood at 1.08. Also, the antibacterial activity result in data set [3] is reported as “-”.
